What was measured:
JNK = assay: IL-1β-induced JNK phosphorylation, Western blot in RAW Blue cells; assay type: cell-based; design: key to Western Blot JNK (heatmap grade of inhibition): 0: No effect; No effect 01234 Maximum inhibition/efficacy; No effect 01234 Maximum inhibition/efficacy; No effect 01234 Maximum inhibition/efficacy; 4: Maximum inhibition/efficacy; settings: for Western Blot JNK (heatmap grade of inhibition): RAW Blue cells, peptide 10^-6 M or Kineret 1.0 mg/mL 30 min, then IL-1β 100 ng/mL 15 min
Protocol: RAW Blue cells (Invivogen) were grown under standard conditions (37°C, 5% CO2) and maintained under passage number 15. Cells were equilibrated with 1, 5, or 6 (10^−6M) or Kineret (1.0 mg/mL) for 30 min, after which time they were exposed to IL-1β (100 ng/mL) for 15 min. Cells were harvested and lysed on ice for 30 min using a radioimmunoprecipitation assay buffer (Cell Signaling) supplemented with 1 mM phenylmethylsulfonyl fluoride (PMSF) and cOmplete™ EDTA-free protease inhibitor cocktail (Roche, Mannheim, Germany, prepared according to the manufacturer's instructions). Protein concentrations were determined using a Bradford protein assay (Bio-Rad) on 96-well plates with a microplate reader (EnVision Multilabel reader) measuring OD at […]. Bovine serum albumin serial dilutions were used to generate a standard curve. Lysates were then mixed with 4X reducing sample buffer (Bio-Rad).
Lysates were loaded (30 μg protein per well) in a 5% acrylamide stacking gel, and samples were electrophoresed in a 12% acrylamide resolving gel for 1.5 h at 120 V, followed by a 1 h transfer onto polyvinylidene difluoride (PDVF) membranes at 100 V. Membranes were blocked and incubated with 1:1,000 dilution of primary antibody and 1:20,000 dilution of secondary antibodies according to the manufacturer's instructions. Antibodies used were for phospho-p38 MAPK (Cell Signaling, #9211), p38 MAPK (Cell Signaling, #9212), SAPK/JNK (Cell Signaling, #9252), phospho-SAPK/JNK (Cell Signaling, #9251), ROCK2 (Thermo Fisher Scientific PA5-21131), phospho-ROCK2 (Thermo Fisher Scientific PA5-34895), and goat anti-rabbit conjugated to horseradish peroxidase (Abcam, ab6721). Membranes were imaged using an Amersham Imager 600 (GE Healthcare) using Clarity Western ECL Substrate (Bio-Rad). The intensity of protein bands was quantified using ImageJ and standardized using total (phosphorylated + non-phosphorylated) protein content. Data are representative of three independent experiments.
Figure 7 The effects of peptides 1, 5, and 6 on IL-1β-induced phosphorylation of JNK, ROCK2, and p38. Graphical representations of band density analysis of Western Blots, sorted into columns based on protein of interest (JNK, ROCK2, or p38) and rows by peptide configuration [(3R-) or (3S)]. RAW-blue cells were pretreated with peptides 1, 5, 6, Kineret, or vehicle for 30 min and then stimulated with IL-1β for 15 min. Images of representative Western Blots can be found in the Supplementary Figure 1. Results shown are the average of 3 independent experiments: ^*p < 0.05, ^**p < 0.01, ^***p < 0.001, ^****p < 0.0001 compared to group treated only with IL-1β. Treatment groups that are not labeled with asterisks are statistically non-significant compared to group treated only with IL-1β.

COX2 = assay: qPCR of IL-1β-induced COX-2 (PTGHS2) expression in HEK-Blue IL-33/IL-1β cells; assay type: cell-based, human; design: key to qPCR COX2 (heatmap grade of inhibition): 0: No effect; No effect 01234 Maximum inhibition/efficacy; No effect 01234 Maximum inhibition/efficacy; No effect 01234 Maximum inhibition/efficacy; 4: Maximum inhibition/efficacy; settings: for qPCR COX2 (heatmap grade of inhibition): HEK-Blue cells, peptide 10^-6 M or Kineret 1.0 mg/mL 30 min, then IL-1β 100 ng/mL 4 h (legend: overnight); for Suppression of COX2 transcription: HEK blue cells, 10^-6 M pre-treatment, IL-1β stimulation
Protocol: (§1) HEK-Blue IL-33/IL-1β cells were purchased from InvivoGen (San Diego, CA) and used at passages under 15. HEK-Blue cells were cultured in DMEM growth medium supplemented with 10% serum, 50 U/mL penicillin, […] streptomycin, […] zeocin, and […] hygromycin. Cells were grown in regular conditions (37°C, 5% CO2). Cells were serum starved overnight and treated with 100 ng/mL IL-1β for 4 h. Cells were pre-incubated for 30 min with peptides 1, 5, or 6 (10^−6M) or Kineret (1.0 mg/mL) prior to the experiments to reach equilibrium (n = 4 each treatment). Cells were harvested and incubated for 5 min in RIBOzol (AMRESCO). RNA was extracted according to manufacturer's protocol and RNA concentration and integrity were measured with a NanoDrop 1,000 spectrophotometer. A total of 500 ng RNA was used to synthetize cDNA using iScript Reverse Transcription SuperMix (Bio-Rad, Hercules, CA). Quantitative gene expression analysis was performed on Stratagene MXPro3000 (Stratagene) with SYBR Green Master Mix (Bio-Rad). Gene expression levels were normalized to 18S universal primer (Ambion Life Technology, Burlington ON, Canada). Genes analyzed include IL1β, IL6, and PTGHS2 [Prostaglandin H synthetase 2 or cyclooxygenase-2 (COX-2)]. Data are representative of 3 experiments (each with n = 4 per treatment group).
(§2) Figure 8 The effects of peptides 1, 5, and 6 on the expression of pro-inflammatory genes. HEK-Blue cells were pre-treated with peptides 1, 5, and 6 as above and stimulated with IL-1β overnight. qPCR was performed on cell lysates using 18S rRNA as internal control. Graphs are sorted in columns by gene of interest (COX-2, IL-1β, or IL-6) and rows by peptide configuration [(3R) or (3S)]. Results are representative of an average of 3 independent experiments (each with n = 4 per treatment group) and are expressed as a fold-change of the non-stimulated control: ^*p < 0.05, ^**p < 0.01, ^***p < 0.001, ^****p < 0.0001 compared to group treated only with IL-1β. Treatment groups that are not labeled with asterisks are statistically non-significant compared to group treated only with IL-1β.

IL-1β = assay: qPCR of IL-1β-induced IL-1β expression in HEK-Blue IL-33/IL-1β cells; assay type: cell-based, human; design: key to qPCR IL-1β (heatmap grade of inhibition): 0: No effect; No effect 01234 Maximum inhibition/efficacy; No effect 01234 Maximum inhibition/efficacy; No effect 01234 Maximum inhibition/efficacy; 4: Maximum inhibition/efficacy; settings: for qPCR IL-1β (heatmap grade of inhibition): HEK-Blue cells, peptide 10^-6 M or Kineret 1.0 mg/mL 30 min, then IL-1β 100 ng/mL 4 h (legend: overnight); for Suppression of IL-1β transcription: HEK blue cells, 10^-6 M pre-treatment, IL-1β stimulation
Protocol: as §1, §2

Substance	Western Blot JNK (heatmap grade of inhibition) (JNK)	qPCR COX2 (heatmap grade of inhibition) (COX2)	qPCR IL-1β (heatmap grade of inhibition) (IL-1β)	Suppression of COX2 transcription (COX2)	Suppression of IL-1β transcription (IL-1β)	Inhibition of IL-1β-induced JNK phosphorylation (JNK; RAW-blue cells, 10^-6 M, 30 min, then IL-1β 15 min)
H-D-Arg-D-Tyr-(3R,4R)-Hgl-(S)-Val-D-Glu-D-Leu-D-Ala-NH2 [[(3R,4R)-Hgl^3-(S)-Val^4]-1]	1	4	3	–	–	–
H-D-Arg-D-Tyr-(3R,4R)-Hgl-D-Val-D-Glu-D-Leu-D-Ala-NH2 [[(3R,4R)-Hgl^3]-1]	0	4	4	–	–	–
H-D-Arg-D-Tyr-(3R,4S)-Hgl-(S)-Val-D-Glu-D-Leu-D-Ala-NH2 [[(3R,4S)-Hgl^3-(S)-Val^4]-1]	2	4	4	–	–	–
H-D-Arg-D-Tyr-(3R,4S)-Hgl-D-Val-D-Glu-D-Leu-D-Ala-NH2 [[(3R,4S)-Hgl^3]-1]	4	4	4	–	–	–
H-D-Arg-D-Tyr-(3S,4R)-Hgl-D-Val-D-Glu-D-Leu-D-Ala-NH2 [[(3S,4R)-Hgl^3]-1]	3	4	4	–	–	–
H-D-Arg-D-Tyr-(R)-Agl-(S)-Val-D-Glu-D-Leu-D-Ala-NH2 [[(3R)-Agl^3-(S)-Val^4]-1]	0	1	1	ability to suppress the transcription of all three genes was lost	ability to suppress the transcription of all three genes was lost	–
H-D-Arg-D-Tyr-(R)-Agl-D-Val-D-Glu-D-Leu-D-Ala-NH2 [[(3R)-Agl^3]-1]	4	3	4	–	–	–
H-D-Arg-D-Tyr-(S)-Agl-(S)-Val-D-Glu-D-Leu-D-Ala-NH2 [[(3S)-Agl^3-(S)-Val^4]-1]	0	1	1	ability to suppress the transcription of all three genes was lost	ability to suppress the transcription of all three genes was lost	–
H-D-Arg-D-Tyr-(S)-Agl-D-Val-D-Glu-D-Leu-D-Ala-NH2 [[(3S)-Agl^3]-1]	4	4	4	–	–	–
H-D-Arg-D-Tyr-D-Thr-D-Val-D-Glu-D-Leu-D-Ala-NH2 [Peptide 1]	4	4	4	strong suppression of transcription of all three genes	strong suppression of transcription of all three genes	inhibited the effects of all three kinases
Kineret: FDA-approved recombinant IL-1 receptor antagonist	4	4	4	–	–	–

From PMC6381024, “Probing Anti-inflammatory Properties Independent of NF-κB Through Conformational Constraint of Peptide-Based Interleukin-1 Receptor Biased Ligands” (Frontiers in Chemistry, 2019)
